The experiment has as its system pdr5 ypt1^ts cells. The experiment is described as follows: microbe, parasite or virus in culture. Conditions: 37° C.; for minimal effective concentration: Saccharomyces cerevisiae, lowest concentration tested giving growth above the 0 μM background, read-out: ypt1-ts MRC (minimal rescue concentration); for minimal effective concentration / optical density, ypt1-ts, 0.39 / optical density, ypt1-ts, 0.78 / optical density, ypt1-ts, 1.56 / optical density, ypt1-ts, 3.13 / optical density, ypt1-ts, 6.25 / optical density, ypt1-ts, 12.5 / optical density, ypt1-ts, 25: Table 2; for optical density, ypt1-ts, 0.39: 0.39 μM compound; for optical density, ypt1-ts, 0.39 / optical density, ypt1-ts, 0.78 / optical density, ypt1-ts, 1.56 / optical density, ypt1-ts, 3.13 / optical density, ypt1-ts, 6.25 / optical density, ypt1-ts, 12.5 / optical density, ypt1-ts, 25: background (0 μM) 0.058; for optical density, ypt1-ts, 0.78: 0.78 μM compound; for optical density, ypt1-ts, 1.56: 1.56 μM compound; for optical density, ypt1-ts, 3.13: 3.13 μM compound; for optical density, ypt1-ts, 6.25: 6.25 μM compound; for optical density, ypt1-ts, 12.5: 12.5 μM compound; for optical density, ypt1-ts, 25: 25 μM compound; for optical density, 3.13 uM / optical density, 12.5 uM / optical density, 50 uM: Table 3, background (0 uM) 0.077; for optical density, 3.13 uM: 3.13 uM compound; for optical density, 12.5 uM: 12.5 uM compound; for optical density, 50 uM: 50 uM compound. Type of experiment: cell-based, yeast. A digest of the protocol:
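Whole-cell yeast growth-rescue screen: pdr5 ypt1^ts cells (efflux pump inactivated), growth-arrested at 37° C., cultured with compounds at 37° C. Restoration of growth read by optical density.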

Molecules are shown by their SMILES.

On to `CCC(=O)Nc1ccc(Cl)c(Cl)c1` [PROPANIL], for which the minimal effective concentration stood at 12.5 µM; the “optical density, ypt1-ts, 0.39” value stood at 0.084; the “optical density, ypt1-ts, 0.78” value is on record as 0.072; the “optical density, ypt1-ts, 1.56” value is listed as 0.076. The “optical density, ypt1-ts, 3.13” value was determined as 0.097; the “optical density, ypt1-ts, 6.25” value stood at 0.108; the “optical density, ypt1-ts, 12.5” value is 0.217; the “optical density, ypt1-ts, 25” value was 0.564.
With `CC(C)c1c(O)ccc2c1CCC1[C@@](C)(CO)CCC[C@]21C` (stereo partly shown) [HYDROXY (19)TOTAROL], the minimal effective concentration was 12.5 µM; the “optical density, ypt1-ts, 0.39” value amounted to 0.098; the “optical density, ypt1-ts, 0.78” value is on record as 0.076; the “optical density, ypt1-ts, 1.56” value is 0.085. The “optical density, ypt1-ts, 3.13” value was 0.106; the “optical density, ypt1-ts, 6.25” value was 0.125; the “optical density, ypt1-ts, 12.5” value is given as 0.407; the “optical density, ypt1-ts, 25” value is 0.515.
As for `C[C@]12CCC3C(CC[C@H]4C[C@H](O)CC[C@]34C)C1CC[C@@H]2O` (stereo partly shown) [EPIANDROSTANEDIOL], the minimal effective concentration is 12.5 µM; the “optical density, ypt1-ts, 0.39” value was 0.082; the “optical density, ypt1-ts, 0.78” value stood at 0.073; the “optical density, ypt1-ts, 1.56” value amounted to 0.068. Also, the “optical density, ypt1-ts, 3.13” value is reported as 0.082; the “optical density, ypt1-ts, 6.25” value turned out to be 0.099; the “optical density, ypt1-ts, 12.5” value is reported as 0.145; the “optical density, ypt1-ts, 25” value was 0.321.
For `COc1c2occc2cc2ccc(=O)oc12` [METHOX- SALEN, reference compound], the “optical density, 3.13 uM” value came out at 0.124; the “optical density, 12.5 uM” value stood at 0.25; the “optical density, 50 uM” value was 0.38.
The like results for `C=CCCCCCCCCCCC/C=C/C(O)COC(C)=O` (stereo not shown) [DEHYDRO- AVOCATIN - 1-ACETATE] were, in that order, 0.116, 0.329 and 0.365.
With `c1ccc2c(Cc3c[nH]c4ccccc34)c[nH]c2c1` [3,3'- DIINDOLYLMETHANE], the minimal effective concentration amounted to 3.13 µM; the “optical density, ypt1-ts, 0.39” value was determined as 0.205; the “optical density, ypt1-ts, 0.78” value is 0.097; the “optical density, ypt1-ts, 1.56” value is recorded as 0.118. The “optical density, ypt1-ts, 3.13” value is on record as 0.164; the “optical density, ypt1-ts, 6.25” value was 0.154; the “optical density, ypt1-ts, 12.5” value was 0.263; the “optical density, ypt1-ts, 25” value is listed as 0.035.
Consider `Cc1[nH]c2ccccc2c1CN(C)C` [2-METHYL GRAMINE], for which the “optical density, 3.13 uM” value was 0.084; the “optical density, 12.5 uM” value amounted to 0.106; the “optical density, 50 uM” value came to 0.295.
In the case of `CCOc1ccc(C(=O)c2ccc(O)c(O)c2O)cc1` [2,3,4-TRIHYDROXY-4'- ETHOX[…]], the minimal effective concentration was 12.5 µM; the “optical density, ypt1-ts, 0.39” value was 0.114; the “optical density, ypt1-ts, 0.78” value is 0.074; the “optical density, ypt1-ts, 1.56” value is recorded as 0.081. The “optical density, ypt1-ts, 3.13” value was determined as 0.103; the “optical density, ypt1-ts, 6.25” value is listed as 0.1; the “optical density, ypt1-ts, 12.5” value was 0.169; the “optical density, ypt1-ts, 25” value came out at 0.365.
For `COc1ccccc1-c1cc(=O)c2c(OC)cccc2o1` [5,2′- DIMETHOXY- FLAVONE], the “optical density, 3.13 uM” value is listed as 0.088; the “optical density, 12.5 uM” value is 0.256; the “optical density, 50 uM” value was 0.383.
The like results for `COc1ccc(-c2coc3c(OC)c(OC)cc(O)c3c2=O)cc1` [ISO- TECTORIGENIN, 7-METHYL ETHER] were, in that order, 0.09, 0.147 and 0.595.
Consider `C=C1CCC(OC(C)=O)/C(C)=C/C[C@@H]2[C@@H]1CC2(C)C` (stereo partly shown) [CARY[…]], for which the minimal effective concentration came out at 12.5 µM; the “optical density, ypt1-ts, 0.39” value amounted to 0.087; the “optical density, ypt1-ts, 0.78” value was found to be 0.076; the “optical density, ypt1-ts, 1.56” value is reported as 0.084. Also, the “optical density, ypt1-ts, 3.13” value was 0.1; the “optical density, ypt1-ts, 6.25” value is 0.109; the “optical density, ypt1-ts, 12.5” value is recorded as 0.239; the “optical density, ypt1-ts, 25” value is reported as 0.258.
As to `C=CCCCCCCCCCCCC(O)CC(O)CO` (stereo not shown) [AVOCADENE], the minimal effective concentration was 6.25 µM; the “optical density, ypt1-ts, 0.39” value stood at 0.097; the “optical density, ypt1-ts, 0.78” value was 0.074; the “optical density, ypt1-ts, 1.56” value is 0.09. The “optical density, ypt1-ts, 3.13” value was 0.108; the “optical density, ypt1-ts, 6.25” value amounted to 0.134; the “optical density, ypt1-ts, 12.5” value worked out at 0.209; the “optical density, ypt1-ts, 25” value is given as 0.408.
Turning to `C=C1C(=O)OC2CC1C(OC(C)=O)C/C(C)=C/CC/C(C)=C/CC[C@]2(C)O` (stereo partly shown) [CRASSIN ACETATE], the minimal effective concentration came out at 12.5 µM; the “optical density, ypt1-ts, 0.39” value is 0.084; the “optical density, ypt1-ts, 0.78” value amounted to 0.068; the “optical density, ypt1-ts, 1.56” value was 0.075. For the same compound, the “optical density, ypt1-ts, 3.13” value was 0.099; the “optical density, ypt1-ts, 6.25” value amounted to 0.107; the “optical density, ypt1-ts, 12.5” value came to 0.324; the “optical density, ypt1-ts, 25” value came to 0.443.
With `C=C1[C@H]2CC[C@@]3(C)[C@H](c4ccoc4)OC(=O)C[C@]13O[C@H]1C[C@H](O)C(C)(C)[C@H](CC(=O)OC)[C@]12C` [3-DEOXY-3beta- HYDROXY- […] METHYL ESTER], the “optical density, 3.13 uM” value was 0.384; the “optical density, 12.5 uM” value is 0.641; the “optical density, 50 uM” value came to 0.621.
For `CC(CCC(=O)O)[C@H]1CCC2C3C(CC[C@@]21C)[C@@]1(C)CC[C@@H](O)C[C@H]1C[C@H]3O` (stereo partly shown) [CHENODIOL, reference compound], the “optical density, 3.13 uM” value is listed as 0.126; the “optical density, 12.5 uM” value is listed as 0.285; the “optical density, 50 uM” value amounted to 0.15.
In the case of `Cc1c(O)c(O)cc2c1CC=C1[C@@]2(C)CC[C@@]2(C)C3C[C@](C)(C(=O)O)CC[C@]3(C)CC[C@]12C` (stereo partly shown) [DIHYDRO- CELASTROL], the “optical density, 3.13 uM” value is 0.119; the “optical density, 12.5 uM” value came out at 0.526; the “optical density, 50 uM” value stood at 0.33.
For the compound `CCOC(=O)N1CCC(=C2c3ccc(Cl)cc3CCc3cccnc32)CC1` [LORATADINE, reference compound], the minimal effective concentration came out at 25 µM.
With `CCOC(=O)c1c(C)cc(O)c(C)c1O` [METHYL[…], ETHYL ESTER], the minimal effective concentration is 25 µM; the “optical density, ypt1-ts, 0.39” value is reported as 0.082; the “optical density, ypt1-ts, 0.78” value is recorded as 0.073; the “optical density, ypt1-ts, 1.56” value was found to be 0.072. In addition, the “optical density, ypt1-ts, 3.13” value amounted to 0.084; the “optical density, ypt1-ts, 6.25” value amounted to 0.097; the “optical density, ypt1-ts, 12.5” value worked out at 0.119; the “optical density, ypt1-ts, 25” value is 0.259.
Take `COc1ccc2oc3ccccc3c(=O)c2c1` [2-METHOXYXANTHONE]: the “optical density, ypt1-ts, 0.39” value was 0.093; the “optical density, ypt1-ts, 0.78” value was 0.069; the “optical density, ypt1-ts, 1.56” value amounted to 0.083; the “optical density, ypt1-ts, 3.13” value came out at 0.094. The “optical density, ypt1-ts, 6.25” value is reported as 0.108; the “optical density, ypt1-ts, 12.5” value is listed as 0.128; the “optical density, ypt1-ts, 25” value was determined as 0.221.
For the compound `CCCCC1C(=O)N(c2ccccc2)N(c2ccccc2)C1=O` [PHENYLBUTAZONE, reference compound], the minimal effective concentration was 6.25 µM; the “optical density, ypt1-ts, 0.39” value was 0.1; the “optical density, ypt1-ts, 0.78” value was found to be 0.084; the “optical density, ypt1-ts, 1.56” value is given as 0.094. Besides, the “optical density, ypt1-ts, 3.13” value is 0.11; the “optical density, ypt1-ts, 12.5” value turned out to be 0.227; the “optical density, ypt1-ts, 25” value was 0.452.
For `COc1ccc(C(=O)c2ccccc2)c(O)c1O` [3-DESMETHYL- 5-DES- HYDROXY- SCLEROIN], the “optical density, 3.13 uM” value is given as 0.11; the “optical density, 12.5 uM” value is 0.149; the “optical density, 50 uM” value worked out at 0.556.
With `COc1ccc(-c2coc3cc(O)cc(O)c3c2=O)cc1` [BIO- CHANIN A], the “optical density, 3.13 uM” value is recorded as 0.112; the “optical density, 12.5 uM” value was 0.297; the “optical density, 50 uM” value is recorded as 0.055.
In the case of `Oc1ccc2c(c1)OCC1c3cc4c(cc3OC21)OCO4` (stereo not shown) [MAACKIAIN], the minimal effective concentration came to 25 µM; the “optical density, ypt1-ts, 0.39” value was 0.084; the “optical density, ypt1-ts, 0.78” value stood at 0.073; the “optical density, ypt1-ts, 1.56” value was determined as 0.076. For the same compound, the “optical density, ypt1-ts, 3.13” value stood at 0.103; the “optical density, ypt1-ts, 6.25” value came out at 0.09; the “optical density, ypt1-ts, 12.5” value is 0.104; the “optical density, ypt1-ts, 25” value is 0.209.
As to `C=C1C2CC[C@@]3(C)[C@H](c4ccoc4)OC(=O)C[C@]13O[C@H]1C[C@H](OC(C)=O)C(C)(C)[C@H](CC(=O)OC)[C@@]21C` [3beta- ACETO[…] ACID, METHYL ESTER], the minimal effective concentration turned out to be 1.56 µM; the “optical density, ypt1-ts, 0.39” value is given as 0.129; the “optical density, ypt1-ts, 0.78” value amounted to 0.096; the “optical density, ypt1-ts, 1.56” value is reported as 0.133. Also, the “optical density, ypt1-ts, 3.13” value was 0.374; the “optical density, ypt1-ts, 6.25” value is listed as 0.538; the “optical density, ypt1-ts, 12.5” value was determined as 0.571; the “optical density, ypt1-ts, 25” value is on record as 0.553.

(Values after patent US20100305068A1, “COMPOUNDS AND METHODS FOR MODULATING PROTEIN TRAFFICKING” (priority 2006, published 2010).)
